Where two headings read alike, the source gives them in different places.
Molecular target: T1, human URAT1 (Homo sapiens, UniProt Q96S37)
T1 construct: The full-length hURAT1 cDNA was obtained from the vector pCMV6-XL5 and subcloned into the expression vector pCMV6-Neo
T1 sequence (Q96S37 1-553): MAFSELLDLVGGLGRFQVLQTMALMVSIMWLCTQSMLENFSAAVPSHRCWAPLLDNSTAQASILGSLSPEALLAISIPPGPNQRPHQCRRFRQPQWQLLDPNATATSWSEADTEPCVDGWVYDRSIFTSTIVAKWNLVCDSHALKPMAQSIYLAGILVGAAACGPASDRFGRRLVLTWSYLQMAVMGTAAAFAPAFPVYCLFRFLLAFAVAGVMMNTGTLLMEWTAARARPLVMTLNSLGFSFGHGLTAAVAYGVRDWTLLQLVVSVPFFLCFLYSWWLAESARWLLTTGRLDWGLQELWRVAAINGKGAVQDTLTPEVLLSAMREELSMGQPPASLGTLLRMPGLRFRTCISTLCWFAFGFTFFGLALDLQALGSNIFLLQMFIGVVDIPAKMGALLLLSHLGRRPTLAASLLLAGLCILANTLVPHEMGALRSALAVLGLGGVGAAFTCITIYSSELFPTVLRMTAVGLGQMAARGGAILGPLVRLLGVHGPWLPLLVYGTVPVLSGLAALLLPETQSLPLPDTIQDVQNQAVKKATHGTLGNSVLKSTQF
Test: URAT1 inhibition assay: [8-14C] urate uptake in hURAT1-HEK cells
Type: cell-based
Procedure: An in vitro URAT1 assay is useful for identifying compounds with potential activity in lowering serum uric acid. A suitable assay involves transfection of cells (e.g. human embryonic kidney cells; “HEK”) with a vector encoding human URAT1, followed by determination of the ability of transfected cells to take up radiolabeled uric acid. The activity of compounds as URAT1 inhibitors is evaluated by their ability to block uric acid uptake by transfected cells.
Plasmid vector pCMV6-XL5 containing hURAT1 cDNA (Cat. No. SC125624) and the expression vector pCMV6-Neo (Cat. No.pCMVNEO) were obtained from OriGene Technologies, Inc. The full-length hURAT1 cDNA was obtained from the vector pCMV6-XL5 and subcloned into the expression vector pCMV6-Neo to create the hURAT1 expression plasmid pCMV6-hURAT1. The sequences were verified by automatic DNA sequencing.
Human embryonic kidney 293 (HEK) cells (ATTCC, Cat No. CRL-1573) were cultured in EMEM supplemented with 10% FBS and 2 mM L-glutamine and incubated at 37° C. and 5% CO2. For transfection experiments, cells were plated on 60 mm dishes in 1 ml media per dish. After an 18-24 hour incubation, cells were transfected with plasmid pCMV6-hURAT1 or the expression vector pCMV6-Neo, using the Lipofectin trasfection agent following the manufacturer's instructions (Invitrogen, Cat.No. 18292). After transfection cells were grown in EMEM media for 72 hours and then by adding lmg/ml Geneticin (GIBCO, Cat. No 10131) stable transfectants were selected. Stable transfectants expressing hURAT1 (herein after referred as hURAT1-HEK cells) or cells having only the expression vector pCMV6-Neo (herein after referred as mock-HEK cells) were verified using reverse transcription polymerase chain reaction (RT-PCR) methods.
hURAT1-HEK cells and mock-HEK cells were plated in poly-D-Lysine Cell culture 24 well plates (Becton Dickinson, Cat. No. 354414) at a concentration of 3×10^5 in EMEM medium and incubated overnight. Reaction solutions containing the [8-^14C] urate (55 mCi/mmol) at a final concentration of 50 μM were prepared with or without test compounds in Hanks' balanced salt solution (HBSS) containing 125 mM sodium gluconate, 4.8 mM potassium gluconate, 1.3 mM calcium, 5.6 mM glucose, 1.2 mM magnesium sulfate, 1.2 mM KH2PO4 and 25 mM HEPES (pH7.4). Before the uptake assay started, the culture medium was removed and the cells were incubated for 5 min in 0.6 ml of HBSS. After that HBSS was removed, the prepared reaction solutions were added into each well and incubated for 5 min at room temperature. Then the reaction solution was removed, cells were washed twice with 0.6 ml of cold HBSS and lysed with 0.2 ml of 0.1 M NaOH for 20 min. The cell lysates were transferred into the scintillation vials containing 1 ml of scintillation fluid (Opti Phase SuperMIX, PerkinElmer, Cat No. 1200-439) and the radioactivity was counted in the Microbeta counter (1450, Wallac Jet, PerkinElmer). Test compounds were dissolved in DMSO and the same concentration of DMSO was added into the wells of mock-HEK cells and the hURAT1-HEK cells that didn't contain test compounds. For each test compound, the uptake assay was performed 2 times and carried out in triplicate. Urate uptake of the cells for each test condition was presented as the average percent inhibition in comparison to the DMSO control. The radioactivity values obtained for the wells that contained DMSO were taken as 100% uptake of the cells. The observed concentration-percent inhibition data were fitted to a sigmoidal concentration-effect model, where: % Inhibition=(100*Conc^Slope)/(IC50^Slope+Conc^Slope)
IC50 and slope estimates with their 95% confidence limits were determined by a non-linear, least-squares regression analysis using the Data Analysis Toolbox™ (MDL Information Systems, San Leandro, Calif., USA). […]

[1] = 10 μM test compound, 14C urate uptake in hURAT1-HEK cells, vs DMSO control, read-out: % of inhibition (at 10 μM)

Row | Structure (SMILES) | inhibition at 10 µM [1] | other results
1 | Cc1cccc(C)c1COc1cc(C(=O)O)ccc1F [FD, 3-(2,6-dimethylbenzyloxy)-4-fluorobenzoic acid] | 68.1% | –
2 | Cc1ccc(CC(=O)O)cc1OCc1c(C)cccc1C [EH, 2-(3-(2,6-Dimethylbenzyloxy)-4-methylphenyl)acetic acid, reference compound] | 95.6% | –
3 | Cc1ccc(C(=O)O)cc1OCc1c(C)cccc1C [FA, 3-(2,6-dimethylbenzyloxy)-4-methylbenzoic acid] | 83.2% | –
4 | Cc1cccc(C)c1COc1cc(C(=O)O)ccc1N [FE, 4-amino-3-(2,6-dimethylbenzyloxy)benzoic acid] | 10% | –
5 | COc1ccc(C(=O)O)cc1OCc1c(C)cccc1C [Compound FC, 3-(2,6-dimethylbenzyloxy)-4-methoxybenzoic acid] | 89.2% | inhibition at 0.05 µM (concentration 0.05 μM, urate uptake in hURAT1-HEK cells): 7.08%; inhibition at 0.1 µM (concentration 0.1 μM, urate uptake in hURAT1-HEK cells): -1.08%; inhibition at 0.5 µM (concentration 0.5 μM, urate uptake in hURAT1-HEK cells): 34.6%; inhibition at 1 µM (concentration 1 μM, urate uptake in hURAT1-HEK cells): 49.8%; inhibition at 10 µM (concentration 10 μM, urate uptake in hURAT1-HEK cells (Table 2), read-out: % of inhibition Avg.): 93.3%; inhibition at 100 µM (concentration 100 μM, urate uptake in hURAT1-HEK cells): 97.8%
6 | Cc1cccc(C)c1COc1cc(C(=O)O)ccc1[N+](=O)[O-] [FB, 3-(2,6-dimethylbenzyloxy)-4-nitrobenzoic acid] | 81% | –

— patent US10085957B2, “Benzoic acid compounds for reducing uric acid” (Wellstat Therapeutics Corporation, priority 2010, dated 2018)
